Test results as given in ChEMBL document CHEMBL1208748 (Bioorg Med Chem Lett, 2010).

Experiments:
Carbonic anhydrase 9 = Carbonic anhydrase 9 (Homo sapiens, UniProt Q16790)
Carbonic anhydrase 1 = Carbonic anhydrase 1 (Homo sapiens, UniProt P00915)
Carbonic anhydrase 3 = Carbonic anhydrase 3 (Homo sapiens, UniProt P07451)
Carbonic anhydrase 7 = Carbonic anhydrase 7 (Homo sapiens, UniProt P43166)
Carbonic anhydrase 12 = Carbonic anhydrase 12 (Homo sapiens, UniProt O43570)
Carbonic anhydrase 15 = biological target: T1, Carbonic anhydrase 15 (Mus musculus, UniProt Q99N23)
T1 sequence (Q99N23 whole entry): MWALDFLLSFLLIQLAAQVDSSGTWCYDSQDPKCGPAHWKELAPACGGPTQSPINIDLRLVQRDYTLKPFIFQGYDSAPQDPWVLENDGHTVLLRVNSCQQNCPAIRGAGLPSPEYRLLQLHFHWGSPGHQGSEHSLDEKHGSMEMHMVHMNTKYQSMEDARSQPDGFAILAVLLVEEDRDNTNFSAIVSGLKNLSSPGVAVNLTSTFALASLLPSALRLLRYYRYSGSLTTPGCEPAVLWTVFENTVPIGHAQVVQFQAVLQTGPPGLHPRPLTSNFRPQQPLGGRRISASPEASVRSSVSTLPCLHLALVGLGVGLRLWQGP

Carbonic anhydrase 13 = Carbonic anhydrase 13 (Homo sapiens, UniProt Q8N1Q1); assay: Inhibition of human recombinant carbonic anhydrase 13 after 15 mins by stopped-flow CO2 hydration assay
Sequence of Carbonic anhydrase 13 (Q8N1Q1 whole entry): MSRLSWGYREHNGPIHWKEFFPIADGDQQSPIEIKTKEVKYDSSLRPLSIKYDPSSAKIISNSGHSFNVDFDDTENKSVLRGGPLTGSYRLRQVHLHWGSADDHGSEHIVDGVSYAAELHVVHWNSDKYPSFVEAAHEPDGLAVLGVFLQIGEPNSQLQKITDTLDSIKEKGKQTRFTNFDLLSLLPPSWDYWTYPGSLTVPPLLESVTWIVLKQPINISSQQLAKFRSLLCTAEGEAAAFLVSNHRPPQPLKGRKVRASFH

[1] = biological target: Carbonic anhydrase 5A, mitochondrial (Homo sapiens, UniProt P35218); assay: Inhibition of human recombinant carbonic anhydrase 5a after 15 mins by stopped-flow CO2 hydration assay
Sequence of Carbonic anhydrase 5A, mitochondrial (P35218 whole entry): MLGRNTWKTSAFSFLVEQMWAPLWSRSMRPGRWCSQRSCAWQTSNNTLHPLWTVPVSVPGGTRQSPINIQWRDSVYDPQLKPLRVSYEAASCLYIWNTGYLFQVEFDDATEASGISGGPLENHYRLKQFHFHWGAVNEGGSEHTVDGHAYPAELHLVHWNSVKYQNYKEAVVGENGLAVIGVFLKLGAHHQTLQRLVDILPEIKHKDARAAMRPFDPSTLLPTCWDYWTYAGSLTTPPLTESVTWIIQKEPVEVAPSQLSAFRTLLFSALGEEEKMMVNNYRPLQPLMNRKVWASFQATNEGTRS

Carbonic anhydrase 14 = Carbonic anhydrase 14 (Homo sapiens, UniProt Q9ULX7); assay: Inhibition of human recombinant carbonic anhydrase 14 after 15 mins by stopped-flow CO2 hydration assay
Sequence of Carbonic anhydrase 14 (Q9ULX7 whole entry): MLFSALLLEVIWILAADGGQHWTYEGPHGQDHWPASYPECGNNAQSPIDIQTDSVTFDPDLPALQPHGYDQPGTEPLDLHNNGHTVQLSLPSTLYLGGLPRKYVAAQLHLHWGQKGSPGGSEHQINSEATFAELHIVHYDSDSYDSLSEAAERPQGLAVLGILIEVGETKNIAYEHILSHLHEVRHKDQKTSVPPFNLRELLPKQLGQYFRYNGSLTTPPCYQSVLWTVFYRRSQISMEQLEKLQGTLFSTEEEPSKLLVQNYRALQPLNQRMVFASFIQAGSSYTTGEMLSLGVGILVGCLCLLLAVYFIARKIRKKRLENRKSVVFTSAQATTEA

[2] = biological target: Carbonic anhydrase 5B, mitochondrial (Homo sapiens, UniProt Q9Y2D0)
Sequence of Carbonic anhydrase 5B, mitochondrial (Q9Y2D0 whole entry): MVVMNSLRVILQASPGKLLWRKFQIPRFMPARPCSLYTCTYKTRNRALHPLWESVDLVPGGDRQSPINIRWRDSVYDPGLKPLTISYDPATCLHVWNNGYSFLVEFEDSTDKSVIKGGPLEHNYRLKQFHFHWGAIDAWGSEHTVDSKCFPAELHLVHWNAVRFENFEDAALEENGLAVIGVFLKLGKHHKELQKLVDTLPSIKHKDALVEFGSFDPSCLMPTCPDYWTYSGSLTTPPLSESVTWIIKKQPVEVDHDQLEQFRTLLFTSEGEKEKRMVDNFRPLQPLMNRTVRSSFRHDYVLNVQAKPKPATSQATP

Sequence of Carbonic anhydrase 12 (O43570 whole entry): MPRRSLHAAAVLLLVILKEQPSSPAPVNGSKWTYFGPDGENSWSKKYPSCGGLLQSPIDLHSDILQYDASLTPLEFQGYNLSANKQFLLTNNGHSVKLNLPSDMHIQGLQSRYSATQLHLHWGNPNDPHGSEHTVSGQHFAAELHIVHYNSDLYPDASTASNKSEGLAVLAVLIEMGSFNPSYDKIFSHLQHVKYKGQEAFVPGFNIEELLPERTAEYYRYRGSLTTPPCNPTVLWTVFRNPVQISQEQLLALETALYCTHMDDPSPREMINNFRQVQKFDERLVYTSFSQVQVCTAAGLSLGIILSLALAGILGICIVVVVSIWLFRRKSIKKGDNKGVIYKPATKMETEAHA
Sequence of Carbonic anhydrase 7 (P43166 whole entry): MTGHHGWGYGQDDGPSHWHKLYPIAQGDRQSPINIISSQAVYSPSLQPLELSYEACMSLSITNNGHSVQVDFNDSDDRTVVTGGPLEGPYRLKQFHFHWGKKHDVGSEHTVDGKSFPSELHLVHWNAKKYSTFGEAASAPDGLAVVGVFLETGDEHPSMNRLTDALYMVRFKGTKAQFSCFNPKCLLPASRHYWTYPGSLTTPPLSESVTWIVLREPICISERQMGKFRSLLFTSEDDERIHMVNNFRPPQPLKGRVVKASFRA
Sequence of Carbonic anhydrase 3 (P07451 whole entry): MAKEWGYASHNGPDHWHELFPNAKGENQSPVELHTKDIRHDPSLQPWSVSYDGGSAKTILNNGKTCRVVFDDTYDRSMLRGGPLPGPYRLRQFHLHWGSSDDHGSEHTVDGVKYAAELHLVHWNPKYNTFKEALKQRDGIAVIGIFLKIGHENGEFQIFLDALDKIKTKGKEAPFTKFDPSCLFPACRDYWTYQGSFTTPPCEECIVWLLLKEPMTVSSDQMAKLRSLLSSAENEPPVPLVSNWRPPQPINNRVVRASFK
Sequence of Carbonic anhydrase 1 (P00915 whole entry): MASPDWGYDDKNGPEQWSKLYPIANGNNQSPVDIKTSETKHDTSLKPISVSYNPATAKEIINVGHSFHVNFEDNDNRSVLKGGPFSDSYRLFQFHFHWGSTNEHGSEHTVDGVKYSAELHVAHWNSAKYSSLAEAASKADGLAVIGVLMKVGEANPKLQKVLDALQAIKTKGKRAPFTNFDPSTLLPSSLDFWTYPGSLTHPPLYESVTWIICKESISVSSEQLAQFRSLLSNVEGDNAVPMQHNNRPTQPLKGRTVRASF

Row | Structure (SMILES) | Ki (Carbonic anhydrase 9) [nM] | Ki (Carbonic anhydrase 1) [nM] | Ki (Carbonic anhydrase 3) [nM] | Ki (Carbonic anhydrase 7) [nM] | Ki (Carbonic anhydrase 12) [nM] | Ki (Carbonic anhydrase 15) [nM] | Ki (Carbonic anhydrase 13) [nM] | Ki [1] [nM] | Ki (Carbonic anhydrase 14) [nM] | Ki [2] [nM]
1 | NS(=O)(=O)c1nnc(NC(=O)C23CC4CC(CC(C4)C2)C3)s1 | 6.4 | 883 | 300000 | 35 | 2.8 | 652 |  |  |  | 
2 | NS(=O)(=O)c1nnc(NC(=O)CC23CC4CC(CC(C4)C2)C3)s1 | 49.5 | 362 | 410000 | 48 | 4.7 | 719 |  |  |  | 
3 | Nc1nnc(S(N)(=O)=O)s1 |  |  | 150000 |  | 34 |  | 79 |  |  | 

Results, then the molecule that gave them:

Row | Ki (Carbonic anhydrase 9) [nM] | Ki (Carbonic anhydrase 1) [nM] | Ki (Carbonic anhydrase 3) [nM] | Ki (Carbonic anhydrase 7) [nM] | Ki (Carbonic anhydrase 12) [nM] | Ki (Carbonic anhydrase 15) [nM] | Ki (Carbonic anhydrase 13) [nM] | Ki [1] [nM] | Ki (Carbonic anhydrase 14) [nM] | Ki [2] [nM] | Structure (SMILES)
4 |  |  | 300000 |  |  | 34 |  |  |  |  | Cc1cc(C)[n+](CCc2ccc(S(N)(=O)=O)cc2)c(C)c1
5 |  |  |  | 2.9 | 13 | 30 |  |  |  |  | Nc1c(F)cc(S(=O)(=O)Nc2nnc(S(N)(=O)=O)s2)cc1Cl
6 |  |  | 70000 |  |  |  | 98 | 794 | 689 | 93 | Cc1ccc(-c2cc(C(F)(F)F)nn2-c2ccc(S(N)(=O)=O)cc2)cc1 [CELECOXIB]
